Earlier results on one molecule are cited in US20070190094A1, “PESTICIDAL COMPOSITIONS CONTAINING ISOPROPYL-CONTAINING COMPOUNDS AS PESTICIDALLY ACTIVE INGREDIENTS” (ECOSMART TECHNOLOGIES, INC., priority 2006, published 2007).

The conditions of data set [1]: chronic toxicity studies; increased liver weights even at the lowest doses.
For data set [2] the following is noted: animal studies; treatments as low as.
The conditions of data set [3]: U.S. Environmental Protection Agency classification.
Data set [4] relates to hepatic microsomal oxidase enzymes. Conditions: in vivo.

Consider `CCCCOCCOCCOCc1cc2c(cc1CCC)OCO2` [PBO, piperonyl butoxide], for which the “lowest dose at which increased liver weights were shown” value in data set [1] is reported as 30 mg/kg/day. Besides, the “treatment level at which hepatocellular carcinomas were shown” value in data set [2] is reported as 1.2%. In addition, the EPA carcinogen class result in data set [3] is “class C possible human carcinogen”. Moreover, the “effect on hepatic microsomal oxidase enzymes” value in data set [4] was “inhibit hepatic microsomal oxidase enzymes”.
